In patent US7250422B2 (priority 2002, dated 2007):

Columns and labels:
[1] = tested on: Male ICR mice; experiment: Conditioned place preference test for psychological dependence on morphine; settings: p<0.01, FIG. 1
Source text: (§1) 10 to 15 mice per group were used.

[2] = tested on: Male ICR mice; experiment: Spontaneous locomotor activity increased by morphine (Video-tracking system); format: in vivo; settings: for locomotor activity (steps): six days; for suppression of locomotor activity increased by morphine vs morphine control group: p<0.001
Protocol: as §1
Spontaneous locomotor activity was tested in a plastic chamber (26×30×30 cm) using a Video-tracking system. […] Immediately after the last administration, the mice were placed in the plastic chamber, and spontaneous locomotor activity was recorded for 30 min and analyzed using a computer program.

[3] = tested on: mice; experiment: Hot-plate test, morphine tolerance caused by repeated administration; format: in vivo; settings: berberine 10 mg/kg i.p. 30 min before morphine 10 mg/kg s.c., six days, tested day 7; P<0.01; FIG. 4
[4] = tested on: Male ICR mice; settings: berberine 1, 3 and 10 mg/kg i.p. 30 min before morphine 5 mg/kg s.c.; FIG. 3
[5] = tested on: rats; settings: intraperitoneal injection; cited from earlier work

COc1ccc2cc3[n+](cc2c1OC)CCc1cc2c(cc1-3)OCO2 [berberine, 7,8,13,13a-tetradihydro-9,10-dimethoxy-2,3-(methyldioxy)berbinium]
inhibition of psychological dependence on morphine ([1]; berberine 1 or 2 mg/kg orally one hour before morphine 5 mg/kg i.p., equal to saline control): completely inhibited | locomotor activity (steps) ([2]; berberine 1 mg/kg orally one hour before morphine 10 mg/kg, recorded 30 min): 19744 steps | suppression of locomotor activity increased by morphine vs morphine control group ([2]; berberine 1 mg/kg orally): 61% | locomotor activity (steps) ([2]; berberine 2 mg/kg orally one hour before morphine 10 mg/kg, recorded 30 min): 20027 steps | suppression of locomotor activity increased by morphine vs morphine control group ([2]; berberine 2 mg/kg orally): 60% | inhibition of the development of morphine tolerance (AUC) [3]: significantly inhibited | effect on the analgesic effect of morphine (AUC of % MPE) [4]: rarely affect the analgesic effect of morphine | LD50 [5]: 90 mg/kg

CN1CC[C@]23c4c5ccc(O)c4O[C@H]2[C@@H](O)C=C[C@H]3[C@H]1C5 [morphine]
development of psychological dependence (testing time minus preconditioning time) ([1]; morphine control, 5 mg/kg i.p. on days 3, 5, 7, 9): significant psychological dependence | locomotor activity (steps by a forefoot) ([2]; only morphine 10 mg/kg once per day for six days, recorded 30 min): 50242 steps
